Like-named read-outs stand apart in the source and are kept apart here.
Biological target: CFTR (Homo sapiens, UniProt P13569)
Assay: Membrane Potential Dye, Enteroid Assay B
Type: cell-based
In short: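 Human intestinal enteroid cells exposed to compound 18-24 h at 37 °C, then loaded with methyl oxonol membrane-potential dye plus CaCC blockers. Chloride transport triggered in chloride-free buffer with 10 μM forskolin, 100 μM IBMX, 300 nM Compound III; fluorescence read 15 min, expressed as % of triple-corrector/potentiator combination control.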

[1] = Table 10, read-out: Ent. B EC50

CFTR, sequence (P13569 with tags, fused parts or gaps DEL508-508): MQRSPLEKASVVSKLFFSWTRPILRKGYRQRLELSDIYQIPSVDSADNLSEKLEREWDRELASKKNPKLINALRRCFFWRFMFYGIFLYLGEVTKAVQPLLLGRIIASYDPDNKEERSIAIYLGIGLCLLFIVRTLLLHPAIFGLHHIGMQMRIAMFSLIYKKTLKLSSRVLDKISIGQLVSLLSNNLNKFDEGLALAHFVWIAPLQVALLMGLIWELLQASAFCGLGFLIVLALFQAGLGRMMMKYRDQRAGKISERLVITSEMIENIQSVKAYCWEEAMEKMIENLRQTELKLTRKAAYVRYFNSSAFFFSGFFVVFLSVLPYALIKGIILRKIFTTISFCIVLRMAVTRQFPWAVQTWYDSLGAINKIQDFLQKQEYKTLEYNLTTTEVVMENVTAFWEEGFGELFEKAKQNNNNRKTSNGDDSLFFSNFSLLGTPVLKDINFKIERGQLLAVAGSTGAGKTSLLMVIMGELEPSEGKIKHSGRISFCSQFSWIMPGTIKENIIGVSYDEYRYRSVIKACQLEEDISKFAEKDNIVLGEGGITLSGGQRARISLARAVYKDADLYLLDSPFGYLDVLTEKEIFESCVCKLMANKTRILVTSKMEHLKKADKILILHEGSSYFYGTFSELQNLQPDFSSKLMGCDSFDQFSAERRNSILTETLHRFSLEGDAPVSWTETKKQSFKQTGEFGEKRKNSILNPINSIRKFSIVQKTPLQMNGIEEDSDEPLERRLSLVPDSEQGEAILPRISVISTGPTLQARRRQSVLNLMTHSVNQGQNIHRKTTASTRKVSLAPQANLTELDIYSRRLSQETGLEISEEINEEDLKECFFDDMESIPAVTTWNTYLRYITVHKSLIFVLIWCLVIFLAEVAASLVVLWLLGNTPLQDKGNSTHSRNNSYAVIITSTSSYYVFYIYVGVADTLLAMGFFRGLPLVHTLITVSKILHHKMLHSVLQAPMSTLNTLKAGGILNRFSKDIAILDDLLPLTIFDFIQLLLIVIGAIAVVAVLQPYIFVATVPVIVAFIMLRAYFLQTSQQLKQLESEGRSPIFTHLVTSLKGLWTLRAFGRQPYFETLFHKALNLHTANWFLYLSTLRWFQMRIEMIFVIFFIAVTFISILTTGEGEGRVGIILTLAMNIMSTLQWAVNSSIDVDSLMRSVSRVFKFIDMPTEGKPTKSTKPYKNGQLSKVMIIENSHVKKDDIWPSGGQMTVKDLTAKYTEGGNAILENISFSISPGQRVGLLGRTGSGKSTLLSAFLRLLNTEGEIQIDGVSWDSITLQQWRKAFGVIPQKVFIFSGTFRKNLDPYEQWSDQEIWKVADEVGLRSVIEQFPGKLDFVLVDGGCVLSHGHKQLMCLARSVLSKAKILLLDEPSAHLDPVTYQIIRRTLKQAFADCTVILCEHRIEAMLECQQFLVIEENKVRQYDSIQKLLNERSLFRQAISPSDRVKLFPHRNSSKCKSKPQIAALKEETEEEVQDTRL

Compound	Ent. B Max Activity (%) (Table 9)	EC50 (Table 9, read-out: Ent. B EC50) [µM]	further results
Cc1cccc(C)c1-c1cc2nc(n1)NS(=O)(=O)c1cccc(c1)C(=O)N(C1CC3(C1)CC(O)(CC(C)C)C3)[C@H](CC(C)(C)C)CO2 (stereo in doubt) [Compound 404]	–	–	Ent. B Max Activity (%) (Table 10): +++ (+++ is >60%); EC50 [1]: < 1 µM
Cc1cccc(C)c1-c1cc2nc(n1)NS(=O)(=O)c1cccc(c1)C(=O)N([C@H]1C[C@@H](OC(C)C)C1)[C@H](CC(C)C)CO2 (single isomer, unassigned) [Compound 46]	+++ (+++ is >60%)	< 1	–
Cc1cccc(C)c1-c1cc2nc(n1)NS(=O)(=O)c1cccc(c1)C(=O)N(C1CC3(CC(C(N)=O)C3)C1)[C@H](CC(C)(C)C)CO2 (stereo partly shown) [Compound 233]	–	–	Ent. B Max Activity (%) (Table 10): +++ (+++ is >60%); EC50 [1]: < 1 µM
COC1CCN(C(=O)C2CC(N3C(=O)c4cccc(c4)S(=O)(=O)Nc4nc(cc(-c5c(C)cccc5C)n4)OC[C@H]3CC(C)C)C2)CC1 (stereo partly shown) [Compound 308]	–	–	Ent. B Max Activity (%): +++ (+++ is >60%); EC50 (read-out: Ent. B EC50): < 1 µM
COC(=O)NC1(C)CC(N2C(=O)c3cccc(c3)S(=O)(=O)Nc3nc(cc(-c4c(C)cccc4C)n3)OC[C@H]2CC(C)(C)C)C1 (single isomer, unassigned) [Compound 172]	–	–	Ent. B Max Activity (%) (Table 10): +++ (+++ is >60%); EC50 [1]: < 1 µM
COCCCN(C)[C@H]1C[C@@H](N2C(=O)c3cccc(c3)S(=O)(=O)Nc3nc(cc(-c4c(C)cccc4C)n3)OC[C@H]2CC(C)C)C1 (stereo in doubt) [Compound 379]	+++ (+++ is >60%)	< 1	–
COCCN1CC2(CC(N3C(=O)c4cccc(c4)S(=O)(=O)Nc4nc(cc(-c5c(C)cccc5C)n4)OC[C@H]3CC(C)C)C2)C1 [Compound 104, (11R)-6-(2,6-Dimethylphenyl)-11-isobutyl-12-[2-(2-methoxyethyl)-2-azaspiro[3.3]heptan-6-yl]-2,2-dioxo-9-oxa-2λ^6-thia-3,5,12,19-tetrazatricyclo[12.3.1.14,8]nonadeca-1(18),4(19),5,7,14,16-hexaen-13-one]	+++ (+++ is >60%)	–	–
Cc1cccc(C)c1-c1cc2nc(n1)NS(=O)(=O)c1cccc(c1)C(=O)N(C1CC(CO)(CO)C1)[C@H](CC(C)(C)C)CO2 [Compound 158, (11R)-12-[3,3-Bis(hydroxymethyl)cyclobutyl]-6-(2,6-dimethylphenyl)-11-(2,2-dimethylpropyl)-9-oxa-2λ^6-thia-3,5,12,19-tetraazatricyclo[12.3.1.14,8]nonadeca-1(17),4(19),5,7,14(18),15-hexaene-2,2,13-trione]	–	–	Ent. B Max Activity (%) (Table 10): +++ (+++ is >60%); EC50 [1]: 1 to 3 µM
[H][C@]1(N2C(=O)c3cccc(c3)S(=O)(=O)Nc3nc(cc(-c4c(C)cccc4C)n3)OC[C@H]2CC2(C(F)(F)F)CC2)C[C@]2(C[C@@H](CO)C2)C1 (single isomer, unassigned) [Compound 135]	–	–	Ent. B Max Activity (%): +++ (+++ is >60%); EC50 (read-out: Ent. B EC50): < 1 µM
CO[C@@H](C)C(=O)N1CCC2(CC1)CC(N1C(=O)c3cccc(c3)S(=O)(=O)Nc3nc(cc(-c4c(C)cccc4C)n3)OC[C@H]1CC(C)C)C2 [Compound 454]	+++ (+++ is >60%)	< 1	–
Cc1cccc(C)c1-c1cc2nc(n1)NS(=O)(=O)c1cccc(c1)C(=O)N(C1CC(NC3CCC(C)(C)CC3)C1)[C@H](CC(C)C)CO2 (stereo partly drawn) [Compound 70, (11R)-12-[3-[(4,4-Dimethylcyclohexyl)amino]cyclobutyl]-6-(2,6-dimethylphenyl)-11-isobutyl-2,2-dioxo-9-oxa-2λ^6-thia-3,5,12,19-tetrazatricyclo[12.3.1.14,8]nonadeca-1(18),4(19),5,7,14,16-hexaen-13-one]	+++ (+++ is >60%)	< 1	–
Cc1cccc(C)c1-c1cc2nc(n1)NS(=O)(=O)c1cccc(c1)C(=O)N(C1CN(C(=O)OC(C)C)C(C)(C)C1)[C@H](CC(C)C)CO2 (stereo partly drawn) [Compound 110, Propan-2-yl 4-[(11R)-6-(2,6-dimethylphenyl)-11-(2-methylpropyl)-2,2,13-trioxo-9-oxa-2λ^6-thia-3,5,12,19-tetraazatricyclo[12.3.1.14,8]nonadeca-1(17),4(19),5,7,14(18),15-hexaen-12-yl]-2,2-dimethylpyrrolidine-1-carboxylate]	+++ (+++ is >60%)	< 1	–
Cc1cccc(C)c1-c1cc2nc(n1)NS(=O)(=O)c1cccc(c1)C(=O)N(C1CC3(CC(C(=O)N(C)C)C3)C1)[C@H](CC(C)(C)C)CO2 (single isomer, unassigned) [Compound 114]	–	–	Ent. B Max Activity (%) (Table 10): +++ (+++ is >60%); EC50 [1]: < 1 µM
CO[C@H]1C[C@@H](N2C(=O)c3cccc(c3)S(=O)(=O)Nc3nc(cc(-c4c(C)cccc4C)n3)OC[C@H]2CC(C)(C)C)C1 (single isomer, unassigned) [Compound 151]	–	–	Ent. B Max Activity (%): +++ (+++ is >60%); EC50 (read-out: Ent. B EC50): < 1 µM
Cc1cccc(C)c1-c1cc2nc(n1)NS(=O)(=O)c1cccc(c1)C(=O)N([C@H]1C[C@@]3(C[C@@H](N)C3)C1)[C@H](CC1(C(F)(F)F)CC1)CO2 (stereo partly drawn) [Compound 81, (R)-6-((2R,4r,6R)-6-Aminospiro[3.3]heptan-2-yl)-1^6-(2,6-dimethylphenyl)-7-((1-(trifluoromethyl)cyclopropyl)methyl)-9-oxa-3-thia-2,6-diaza-1(2,4)-pyrimidina-4(1,3)-benzenacyclononaphan-5-one 3,3-dioxide]	+++ (+++ is >60%)	< 1	–
CCOC(=O)NC1CC2(C1)CC(N1C(=O)c3cccc(c3)S(=O)(=O)Nc3nc(cc(-c4c(C)cccc4C)n3)OC[C@H]1CC(C)(C)C)C2 (stereo partly shown) [Compound 357]	–	–	Ent. B Max Activity (%) (Table 10): +++ (+++ is >60%); EC50 [1]: < 1 µM
CCC(=O)N[C@H]1C[C@@]2(C1)C[C@H](N1C(=O)c3cccc(c3)S(=O)(=O)Nc3nc(cc(-c4c(C)cccc4C)n3)OC[C@H]1CC1(C(F)(F)F)CC1)C2 (stereo partly shown) [Compound 248]	–	–	Ent. B Max Activity (%) (Table 10): +++ (+++ is >60%); EC50 [1]: < 1 µM
COC(=O)NC1CC(N2C(=O)c3cccc(c3)S(=O)(=O)Nc3nc(cc(-c4c(C)cccc4C)n3)OC[C@H]2CC2(C(F)(F)F)CC2)C1 (single isomer, unassigned) [Compound 53]	+++ (+++ is >60%)	< 1	–
Cc1cccc(C)c1-c1cc2nc(n1)NS(=O)(=O)c1cccc(c1)C(=O)N([C@H]1C[C@@H](N3C[C@@H](C)CC3(C)C)C1)[C@H](CC(C)C)CO2 [Compound 359]	–	–	Ent. B Max Activity (%) (Table 10): ++ (++ is 30-60%); EC50 [1]: < 1 µM
Cc1cccc(C)c1-c1cc2nc(n1)NS(=O)(=O)c1cccc(c1)C(=O)N(C1CC3(CCN(C(=O)OC(C)C)CC3)C1)[C@H](CC(C)(C)C(F)(F)F)CO2 [Compound 421]	+++ (+++ is >60%)	< 1	–
Cc1cccc(C)c1-c1cc2nc(n1)NS(=O)(=O)c1cccc(c1)C(=O)N(C1CC(NCCC(C)C)C1)[C@H](CC(C)C)CO2 (stereo partly shown) [Compound 377]	+++ (+++ is >60%)	< 1	–
Cc1cccc(C)c1-c1cc2nc(n1)NS(=O)(=O)c1cccc(c1)C(=O)N(C1CC3(C1)CN(C(C)C)C3)[C@H](CC(C)C)CO2 [Compound 103, (11R)-6-(2,6-Dimethylphenyl)-11-isobutyl-12-(2-isopropyl-2-azaspiro[3.3]heptan-6-yl)-2,2-dioxo-9-oxa-2λ^6-thia-3,5,12,19-tetrazatricyclo[12.3.1.14,8]nonadeca-1(18),4(19),5,7,14,16-hexaen-13-one]	–	–	Ent. B Max Activity (%): +++ (+++ is >60%); EC50 (read-out: Ent. B EC50): < 1 µM
CO[C@H](C)C(=O)N1CCC2(CC1)CC(N1C(=O)c3cccc(c3)S(=O)(=O)Nc3nc(cc(-c4c(C)cccc4C)n3)OC[C@H]1CC(C)C)C2 [Compound 457]	+++ (+++ is >60%)	< 1	–
CCC(=O)N[C@H]1C[C@]2(C1)C[C@H](N1C(=O)c3cccc(c3)S(=O)(=O)Nc3nc(cc(-c4c(C)cccc4C)n3)OC[C@H]1CC1(C(F)(F)F)CC1)C2 (stereo partly shown) [Compound 249]	–	–	Ent. B Max Activity (%) (Table 10): +++ (+++ is >60%); EC50 [1]: < 1 µM
COC(=O)N(C)[C@H]1C[C@]2(C1)C[C@H](N1C(=O)c3cccc(c3)S(=O)(=O)Nc3nc(cc(-c4c(C)cccc4C)n3)OC[C@H]1CC1(C(F)(F)F)CC1)C2 (stereo in doubt) [Compound 260]	+++ (+++ is >60%)	< 1	–
CN[C@H]1C[C@@]2(C1)C[C@H](N1C(=O)c3cccc(c3)S(=O)(=O)Nc3nc(cc(-c4c(C)cccc4C)n3)OC[C@H]1CC1(C(F)(F)F)CC1)C2 (stereo partly shown) [Compound 267]	+++ (+++ is >60%)	< 1	–
CC(C)C[C@@H]1COc2cc(-c3c(C(F)(F)F)cccc3C(F)(F)F)nc(n2)NS(=O)(=O)c2cccc(c2)C(=O)N1C1CC2(CC2)C1 [Compound 186, (11R)-6-[2,6-Bis(trifluoromethyl)phenyl]-11-isobutyl-2,2-dioxo-12-spiro[2.3]hexan-5-yl-9-oxa-2λ^6-thia-3,5,12,19-tetrazatricyclo[12.3.1.14,8]nonadeca-1(18),4,6,8(19),14,16-hexaen-13-one]	++ (++ is 30-60%)	< 1	–

Second part, led by results:

Ent. B Max Activity (%) (Table 9)	EC50 (Table 9, read-out: Ent. B EC50) [µM]	Compound	further results
+++ (+++ is >60%)	< 1	Cc1cccc(C)c1-c1cc2nc(n1)NS(=O)(=O)c1cccc(c1)C(=O)N(C1CC(NC(=O)C(C)C)C1)[C@H](CC(C)(C)C)CO2 (single isomer, unassigned) [Compound 444]	–
+++ (+++ is >60%)	< 1	Cc1cccc(C)c1-c1cc2nc(n1)NS(=O)(=O)c1cccc(c1)C(=O)N(C1CC3(CCN(CC(C)(C)C)CC3)C1)[C@H](CC(C)C)CO2 [Compound 279]	–
+++ (+++ is >60%)	< 1	CCC(=O)NC1CC(N2C(=O)c3cccc(c3)S(=O)(=O)Nc3nc(cc(-c4c(C)cccc4C)n3)OC[C@H]2CC(C)(C)C)C1 (stereo in doubt) [Compound 447]	–
+++ (+++ is >60%)	< 1	COC(=O)N1CCC2(CC1)CC(N1C(=O)c3cccc(c3)S(=O)(=O)Nc3nc(cc(-c4c(C)cccc4C)n3)OC[C@H]1CC(C)(C)C)C2 [Compound 262]	–

— patent publication US20230382925A1, “MODULATORS OF CYSTIC FIBROSIS TRANSMEMBRANE CONDUCTANCE REGULATOR” (VERTEX PHARMACEUTICALS INCORPORATED, priority 2020, published 2023)
